Series [1] can be described thus: Pigment dispersion: amount of Z-cote HP1 dispersed before viscosity reaches 10,000 cps. It counts as physicochemical. As to conditions: 100 g solubilizer/dispersant; Brookfield RVT 20 rpm, 25° C. How it is done: (§1) The branched primary alcohol component and the Z-cote were mixed for 15 minutes at 5000 rpm using a Silverson mixer to form a dispersion of zinc oxide in the alcohol component. The dispersion was allowed to equilibrate to room temperature (25° C.), and then viscosity measurements were taken using a Brookfield (RTM) RVT Viscometer set at 20 rpm. Additional Z-cote was then added to the branched alcohol component in incremental amounts of 15 g. Viscosity measurements were taken after mixing each incremental amount of Z-cote with the branched alcohol component for 15 minutes and after allowing the resulting dispersion to return to room temperature. When the viscosity of the dispersion reached or exceeded 10,000 cps no further additions of Z-cote were made and no further viscosity measurements were taken. A target viscosity of 10,000 cps was selected since a dispersion having a viscosity of greater than 10,000 cps is not preferred for use in a sunscreen composition.
(§2) Pigment Dispersion: Pigment was added to a 100 gm of emollient sample. The mixture was blended using a Silverson mixer for 15 minutes at 5000 rpm. The viscosity was measured after the sample had equilibrated to room temperature.

Series [2] can be described thus: Pigment dispersion: amount of Eusolex T2000 dispersed before viscosity reaches 10,000 cps. Type of series: physicochemical. As to conditions: 100 g solubilizer/dispersant; Brookfield RVT 20 rpm, 25° C. How it is done: as §1, §2
Series [3] in a line: Pigment dispersion: amount of Z-cote dispersed before viscosity reaches 10,000 cps. It counts as physicochemical. As to conditions: 100 g solubilizer/dispersant; Brookfield RVT 20 rpm, 25° C. Here is the method:
as §1
From FIG. 1, the amount of Z-cote needed to provide a dispersion having a viscosity of 10,000 cps may be determined for each solubilizer/dispersant.
as §2

Series [4] in a line: Viscosity of sunscreen formulation with dispersing agent. As to conditions: sunscreen formulation with 15.00 % by weight dispersing agent. Type of series: physicochemical. How it is done:
(§3) This example compares the alcohol of the present invention to several other dispersing agents in terms of in vitro SPF and viscosity. In vitro SPF means that the test was not carried out on human skin, but an artificial medium. The sunscreen formulation is manufactured as follows. The ingredients of Phase A are combined together at 75° C. The ingredients of Phase B are combined together at 75° C. Phase B is then added to Phase A. Phase C is added to the resulting mixture, followed by cooling of the mixture to 40° C. and adding Phase D. The formulation is ready for packaging at a temperature of 35° C.

A short description of series [5]: In vitro SPF of sunscreen formulation with dispersing agent. As to conditions: sunscreen formulation with 15.00 % by weight dispersing agent; artificial medium. How it is done:
as §3

The nature of series [6]: Oven stability test of W/O and O/W lotions. Type of series: physicochemical. The settings on record: 90 days at 23° C. and 45° C. How it is done: Stability Tests: All W/O and O/W lotions were placed on stability testing for phase and odor stability monitoring for 90 days at 23° C. (room temperature) and 45° C.
A short description of series [7]: Solubility profile of branched emollient alcohols in cosmetic solvents. Type of series: physicochemical. On the set-up: key: +: Soluble; +/−: Dispersible.
A short description of series [8]: Freeze/Thaw testing of prototype formulation (3 cycles). Type of series: physicochemical. As to conditions: three 24 hr. freeze/thaw cycles. How it is done:
Freeze/Thaw testing: Phase stability was observed using approximately 30 ml of a prototype formulation. After preparation, the samples were cooled until solid for 24 hrs. They were allowed to equilibrate to room temperature when the appearance of the formulation was recorded. This process was repeated for three 24 hr. freeze/thaw cycles.

Series [9] can be described thus: Viscosity of lotion/moisturizer emulsions containing the fatty alcohol. It counts as physicochemical. Here is the method: Solubility: Two emulsion types (W/O-water-in-oil night cream/lotion and O/W-oil-in-water moisturizer lotion) were prepared. Both types of products incorporated commonly used cosmetic ingredients. The C1617 MM MO and the Guerbet C16 alcohols were used at 15% in the W/O lotion and 10% in the moisturizer.
MO C1617 mono-methyl branched primary alcohol was formulated in a water-in-oil night cream and an oil-in-water moisturizer formula as indicated in Tables 8 and 10 respectively. The viscosity and formula properties of the MO methyl-branched primary alcohol were evaluated relative to a branched C18 emollient alcohol and the data is indicated in Tables 9 and 11 respectively.

[10] abbreviates: Table 8 formulation, 15.0 % wt fatty alcohol.
Where [11] appears, read: Table 10 oil-in-water moisturizer, 10.0 % wt fatty alcohol.

Consider `CCCCCCCCOC(=O)CCCCCCCCC(=O)OCCCCCCCC` [Dioctyl sebacate (DOS), Dioctyl sebacate], for which, in series [1], the “Amount in grams of Z-cote HP1 needed to give a viscosity of 10,000 cps” value is 50 grams. In series [2], the “Amount in grams of Eusolex T2000 needed to give a viscosity of 10,000 cps” value worked out at 34 grams. For the same compound, in [3], the “Amount in grams of Z-cote needed to give a viscosity of 10,000 cps” value amounted to 20 grams.
With `CCCCCCCCCCCCCCCC(=O)OCC(CC)CCCC` (centres unmarked) [Ethylhexylpalmitate], the “Viscosity, cps” value in series [4] came to 13000 cps. Besides, in [5], the “In-vitro SPF” value was 22.73.
With `CCCCCCCCC(CO)CCCCCC` (centres unmarked) [Guerbet C16 Branched], the “Oven Stability” value in series [6] (setting [10]) and in series [6] (setting [11]) was “Pass” in each case. In addition, the “Viscosity, cps” value in [4] is reported as 2700 cps; in [9] (setting [10]), 7,600 cps; in series [9] (setting [11]) it was 11,300 cps. For the same compound, the Solubility result was “+” in [7] (C12-15 Alkyl Benzoate (90%), @ 25° C.); “+” in [7] (C12-15 Alkyl Benzoate (90%), @ 50° C.); “+” in series [7] (Dimethicone 245 (90%), @ 25° C.); “+” in series [7] (Dimethicone 245 (90%), @ 50° C.); “+” in series [7] (Isododecane (90%), @ 25° C.); “+” in series [7] (Isododecane (90%), @ 50° C.). Further, the Solubility result in series [7] (Isohexadecane (90%), @ 25° C.) is reported as “+”; in [7] (Isohexadecane (90%), @ 50° C.), “+”; in series [7] (Isopropylmyristyl Alcohol (90%), @ 25° C.), “+”; in series [7] (Isopropylmyristyl Alcohol (90%), @ 50° C.) it was “+”; in series [7] (Mineral Oil (90%), @ 25° C.) it was “+”; in series [7] (Mineral Oil (90%), @ 50° C.), “+”. Besides, the Solubility entry was “+” in series [7] (Octocrylene (30%), @ 25° C.); “+” in series [7] (Octocrylene (30%), @ 50° C.); “+” in series [7] (Octyl Dimethyl Paba (30%), @ 25° C.); “+” in series [7] (Octyl Dimethyl Paba (30%), @ 50° C.); “+” in [7] (Octyldodecanol (90%), @ 25° C.); “+” in series [7] (Octyldodecanol (90%), @ 50° C.). The Solubility entry in series [7] (Propylene Glycol (90%), @ 25° C.) is on record as “+/−”; in series [7] (Propylene Glycol (90%), @ 50° C.), “+”; in series [7] (Sesame Oil (90%), @ 25° C.), “+”; in [7] (Sesame Oil (90%), @ 50° C.), “+”. The “In-vitro SPF” value in [5] stood at 22.6. The “Freeze-Thaw (3 cycles)” value in [8] (setting [10]) and in series [8] (setting [11]) was “Pass” in each case.
Consider “octyldodecyl neopentanoate [Elefac I-205]”, for which, in series [1], the “Amount in grams of Z-cote HP1 needed to give a viscosity of 10,000 cps” value came to 65 grams. Besides, in series [2], the “Amount in grams of Eusolex T2000 needed to give a viscosity of 10,000 cps” value was 35 grams. Moreover, the “Amount in grams of Z-cote needed to give a viscosity of 10,000 cps” value in [3] is 24 grams.
